According to publication PMC4312132, “Phenylalanine in the Pore of the Erwinia Ligand-Gated Ion Channel Modulates Picrotoxinin Potency but Not Receptor Function” (Biochemistry, 2014):
Like-named read-outs stand apart in the source and are kept apart here.

How the values were obtained:
Assay type in all cases: cell-based, Erwinia chrysanthemii
Q2′N ELIC [1] = target: T1, Q2′N ELIC (Dickeya chrysanthemi, UniProt P0C7B7, Q232N); assay: GABA activation of Q2′N ELIC, two-electrode voltage clamp in Xenopus oocytes
T1 construct: expressed in transfected cells; host or cells: Xenopus laevis oocytes (cRNA injection)

F16′E ELIC [2] = target: T2, F16′E ELIC (Dickeya chrysanthemi, UniProt P0C7B7, F246E); assay: GABA activation of F16′E ELIC, two-electrode voltage clamp in Xenopus oocytes
T2 construct: expressed in transfected cells; host or cells: Xenopus laevis oocytes (cRNA injection)
Procedure: (§1) Xenopus laevis oocyte-positive females were purchased from NASCO (Fort Atkinson, WI) and maintained according to standard methods. Harvested stage V and VI Xenopus oocytes were washed in four changes of Ca^2+-free ND96 [96 mM NaCl, 2 mM KCl, 1 mM MgCl2, and 5 mM HEPES (pH 7.5)], defolliculated in 1.5 mg mL^–1 collagenase type 1A for approximately 2 h, washed again in four changes of ND96, and stored in ND96 at 16 °C containing 2.5 mM sodium pyruvate, […] gentamycin, and 0.7 mM theophylline.
(§2) ELIC (GenBank accession number ADN00343.1) was kindly provided by C. Ulens. For expression in Xenopus oocytes, it was cloned into pGEMHE with the signal sequence of the human α7 nACh receptor. […] Stage V and VI oocytes were injected with 20 ng of cRNA, and currents were recorded 1–3 days postinjection.
(§3) Using two-electrode voltage clamp, Xenopus oocytes were clamped at −60 mV using an OC-725 amplifier (Warner Instruments, Hamden, CT), Digidata 1322A, and the Strathclyde Electrophysiology Software Package (Department of Physiology and Pharmacology, University of Strathclyde, Glasgow, U.K.). Currents were recorded at 5 kHz and filtered at a frequency of 1 kHz. […] Inhibition by test compounds was measured at the GABA EC50 for each mutant. […]

F16′Q ELIC = target: T3, F16′Q ELIC (Dickeya chrysanthemi, UniProt P0C7B7, F246Q); assay: GABA activation of F16′Q ELIC, two-electrode voltage clamp in Xenopus oocytes
T3 construct: expressed in transfected cells; host or cells: Xenopus laevis oocytes (cRNA injection)

T6′A ELIC [3] = target: T4, T6′A ELIC (Dickeya chrysanthemi, UniProt P0C7B7, T236A); assay: GABA activation of T6′A ELIC, two-electrode voltage clamp in Xenopus oocytes
T4 construct: expressed in transfected cells; host or cells: Xenopus laevis oocytes (cRNA injection)

F16′L ELIC = target: T5, F16′L ELIC (Dickeya chrysanthemi, UniProt P0C7B7, F246L); assay: GABA activation of F16′L ELIC, two-electrode voltage clamp in Xenopus oocytes
T5 construct: expressed in transfected cells; host or cells: Xenopus laevis oocytes (cRNA injection)
Procedure: as §1, §2, §3

F16′S/T6′S ELIC = target: T6, F16′S/T6′S ELIC (Dickeya chrysanthemi, UniProt P0C7B7, F246S/T236S); assay: GABA activation of F16′S/T6′S ELIC, two-electrode voltage clamp in Xenopus oocytes
T6 construct: expressed in transfected cells; host or cells: Xenopus laevis oocytes (cRNA injection)

F16′W ELIC [4] = target: T7, F16′W ELIC (Dickeya chrysanthemi, UniProt P0C7B7, F246W); assay: GABA activation of F16′W ELIC, two-electrode voltage clamp in Xenopus oocytes
T7 construct: expressed in transfected cells; host or cells: Xenopus laevis oocytes (cRNA injection)

F16′D ELIC [5] = target: T8, F16′D ELIC (Dickeya chrysanthemi, UniProt P0C7B7, F246D); assay: GABA activation of F16′D ELIC, two-electrode voltage clamp in Xenopus oocytes
T8 construct: expressed in transfected cells; host or cells: Xenopus laevis oocytes (cRNA injection)

T6′S ELIC [6] = target: T9, T6′S ELIC (Dickeya chrysanthemi, UniProt P0C7B7, T236S); assay: GABA activation of T6′S ELIC, two-electrode voltage clamp in Xenopus oocytes
T9 construct: expressed in transfected cells; host or cells: Xenopus laevis oocytes (cRNA injection)

F16′Y ELIC = target: T10, F16′Y ELIC (Dickeya chrysanthemi, UniProt P0C7B7, F246Y); assay: GABA activation of F16′Y ELIC, two-electrode voltage clamp in Xenopus oocytes
T10 construct: expressed in transfected cells; host or cells: Xenopus laevis oocytes (cRNA injection)

F16′A ELIC [7] = target: T11, F16′A ELIC (Dickeya chrysanthemi, UniProt P0C7B7, F246A); assay: GABA activation of F16′A ELIC, two-electrode voltage clamp in Xenopus oocytes
T11 construct: expressed in transfected cells; host or cells: Xenopus laevis oocytes (cRNA injection)
Procedure: as §1, §2, §3

F16′S ELIC [8] = target: T12, F16′S ELIC (Dickeya chrysanthemi, UniProt P0C7B7, F246S); assay: GABA activation of F16′S ELIC, two-electrode voltage clamp in Xenopus oocytes
T12 construct: expressed in transfected cells; host or cells: Xenopus laevis oocytes (cRNA injection)

F16′T ELIC [9] = target: T13, F16′T ELIC (Dickeya chrysanthemi, UniProt P0C7B7, F246T); assay: GABA activation of F16′T ELIC, two-electrode voltage clamp in Xenopus oocytes
T13 construct: expressed in transfected cells; host or cells: Xenopus laevis oocytes (cRNA injection)

T6′S/F16′S ELIC = target: T14, T6′S/F16′S ELIC (Dickeya chrysanthemi, UniProt P0C7B7, F246S/T236S); assay: Inhibition of GABA-elicited currents of T6′S/F16′S ELIC in Xenopus oocytes; conditions: inhibition measured at the GABA EC50
T14 construct: expressed in transfected cells; host or cells: Xenopus laevis oocytes injected with cRNA transcribed from pGEMHE
T14 sequence (P0C7B7 1-321 T236S/F246S): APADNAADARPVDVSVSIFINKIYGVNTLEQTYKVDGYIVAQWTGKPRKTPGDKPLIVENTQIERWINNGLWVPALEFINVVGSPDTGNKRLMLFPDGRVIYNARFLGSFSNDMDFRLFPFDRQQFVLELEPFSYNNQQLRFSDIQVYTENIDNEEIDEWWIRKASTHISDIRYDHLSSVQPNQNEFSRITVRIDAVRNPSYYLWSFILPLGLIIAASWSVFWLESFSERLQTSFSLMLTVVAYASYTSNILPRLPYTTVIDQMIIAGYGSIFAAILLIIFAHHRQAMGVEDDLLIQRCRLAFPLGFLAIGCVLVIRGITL

F16′T ELIC [10] = target: T13, F16′T ELIC; assay: Inhibition of GABA-elicited currents of F16′T ELIC in Xenopus oocytes
F16′S ELIC [11] = target: T12, F16′S ELIC; assay: Inhibition of GABA-elicited currents of F16′S ELIC in Xenopus oocytes
F16′A ELIC [12] = target: T11, F16′A ELIC; assay: Inhibition of GABA-elicited currents of F16′A ELIC in Xenopus oocytes; conditions: inhibition measured at the GABA EC50
Q2′N ELIC [13] = target: T1, Q2′N ELIC; assay: Inhibition of GABA-elicited currents of Q2′N ELIC in Xenopus oocytes
F16′D ELIC [14] = target: T8, F16′D ELIC; assay: Inhibition of GABA-elicited currents of F16′D ELIC in Xenopus oocytes
Procedure: as §1, §2, §3

T6′A ELIC [15] = target: T4, T6′A ELIC; assay: Inhibition of GABA-elicited currents of T6′A ELIC in Xenopus oocytes
Procedure: as §1, §2, §3

F16′E ELIC [16] = target: T2, F16′E ELIC; assay: Inhibition of GABA-elicited currents of F16′E ELIC in Xenopus oocytes
T6′S ELIC [17] = target: T9, T6′S ELIC; assay: Inhibition of GABA-elicited currents of T6′S ELIC in Xenopus oocytes
F16′W ELIC [18] = target: T7, F16′W ELIC; assay: Inhibition of GABA-elicited currents of F16′W ELIC in Xenopus oocytes

NCCCC(=O)O [GABA, γ-aminobutyric acid]
EC50 (Q2′N ELIC [1]): 1820 µM
EC50 (F16′E ELIC [2]; GABA EC50, F16′E ELIC): 26000 µM
EC50 (F16′E ELIC [2]; GABA pEC50, F16′E ELIC): 25700 µM
EC50 (F16′Q ELIC): 7760 µM
EC50 (T6′A ELIC [3]; GABA EC50, T6′A ELIC): 800 µM
EC50 (T6′A ELIC [3]; GABA pEC50, T6′A ELIC): 851 µM
EC50 (F16′L ELIC; GABA EC50, F16′L ELIC): 51000 µM
EC50 (F16′L ELIC; GABA pEC50, F16′L ELIC): 51300 µM
EC50 (F16′S/T6′S ELIC): 6400 µM
EC50 (F16′W ELIC [4]): 2290 µM
EC50 (F16′D ELIC [5]): 2090 µM
EC50 (T6′S ELIC [6]): 1780 µM
EC50 (F16′Y ELIC): 7500 µM
EC50 (F16′A ELIC [7]): 4900 µM
EC50 (F16′S ELIC [8]): 7100 µM
EC50 (F16′T ELIC [9]; GABA EC50, F16′T ELIC): 11000 µM
EC50 (F16′T ELIC [9]; GABA pEC50, F16′T ELIC): 11500 µM

C=C(C)[C@@H]1[C@H]2OC(=O)[C@@H]1[C@]1(O)C[C@H]3O[C@]34C(=O)O[C@H]2[C@]14C [PXN, Picrotoxinin]
IC50 (T6′S/F16′S ELIC; IC50, T6′S/F16′S ELIC): 44 µM
IC50 (F16′T ELIC [10]): 7.2 µM
IC50 (F16′S ELIC [11]): 4.5 µM
IC50 (F16′A ELIC [12]; IC50, F16′A ELIC): 16 µM
IC50 (F16′A ELIC [12]; pIC50, F16′A ELIC): 16.6 µM
IC50 (Q2′N ELIC [13]): 44 µM
IC50 (F16′D ELIC [14]): 9.4 µM
IC50 (T6′A ELIC [15]): 95 µM
IC50 (F16′E ELIC [16]): 26.9 µM
IC50 (T6′S ELIC [17]): 68 µM
IC50 (F16′W ELIC [18]): 52 µM

CCCC(C(=O)OCCN(CC)CC)(c1ccccc1)c1ccccc1 [proadifen]
IC50 (T6′S/F16′S ELIC; T6′S/F16′S ELIC, read-out: IC50): 0.9 µM
IC50 (T6′S/F16′S ELIC; T6′S/F16′S ELIC, read-out: pIC50 (converted)): 0.933 µM
IC50 (F16′S ELIC [11]; F16′S ELIC, inhibition measured at the GABA EC50, read-out: IC50): 5.1 µM
IC50 (T6′S ELIC [17]; T6′S ELIC, inhibition measured at the GABA EC50, read-out: pIC50 (converted)): 2.57 µM
